Test results: patent US10940139B2, “Compounds that interact with the Ras superfamily for the treatment of cancers, inflammatory diseases, rasopathies, and fibrotic disease” (Shy Therapeutics LLC, priority 2017, dated 2021)

These compounds were tested against KRas G12D/Q61H double mutant (Homo sapiens (Human), UniProt P01116, G12D/Q61H) (assay: Ras GTP binding domain inhibition assay (labeled GTP)). Settings: 20 μM compound; KRas G12D/Q61H double mutant; read-out: % Inhibition at 20 μM of K-Ras mutant and wild-type protein, KRas G12D Q61H.
Protocol: Buffer-I: • 50 mM Tris, pH 7.5 • 150 mM NaCl (optional) • 1 mM MgCl2 • 1 mM DTT. • KRas G12D mutant protein was expressed as a His-tagged protein. Purified His-KRas G12D protein was diluted in buffer-I to a final concentration of 3-10 μg/ml. • 200 μl of the diluted His-KRas G12D protein was added to a nickel coated 96 well plate and incubated overnight at 4° C. • The next day, wells were washed 3× in 200 μl of Buffer-I. • Then 200 μl of Buffer-I were added to each well in the presence of 1% DMSO. • Tested compounds were added to the protein-coated wells at a concentration of 20 μM, and incubated for 3 hours at room temperature. While performing IC50 measurements a serial dilution of all tested concentrations was prepared.
Then 22 μl of Cy3-GTP or Cy5-GTP was added to each well. The labeled GTP was incubated for 45 min. at room temperature. • Following GTP incubation, wells were washed 3× in Buffer-I, and 200 μl of Buffer-I were added to each well. • Following washes, the amount of bound labeled-GTP was measured with an Eppendorf AF2200 plate reader.
By substituting KRas G12D mutant protein with KRas G12C mutant, KRas wild type, KRas Q61H mutant, KRas G12D/Q61H double mutant or KRas G12C/Q61H double mutant under the assay conditions described above, KRas G12C mutant KRas wild type, KRas Q61H mutant, KRas G12D/Q61H double mutant and KRas G12C/Q61H double mutant inhibition, respectively, were each determined.

KRas G12D/Q61H double mutant, sequence (P01116-2 other isoform, or with tags, fused parts or gaps G12D/Q61H): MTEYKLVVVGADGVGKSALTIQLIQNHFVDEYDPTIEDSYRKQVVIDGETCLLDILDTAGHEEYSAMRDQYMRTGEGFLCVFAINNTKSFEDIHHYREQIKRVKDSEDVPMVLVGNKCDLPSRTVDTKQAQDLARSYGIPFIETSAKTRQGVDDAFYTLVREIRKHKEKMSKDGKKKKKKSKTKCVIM

Compound | inhibition at 20 µM [%]
Cc1ccc(OC(C)C(=O)Nc2ccccc2S(=O)(=O)NC(C)(C)C)c(Br)c1 (centres unmarked) | 1 to 25
O=C(COc1ccccc1C(=O)c1cnn(-c2ccccc2)c1)NCC1CCCCC1 | 25 to 50
Cc1cc(C)c(C)c(S(=O)(=O)N2CCN(C(C)C(=O)NCc3ccc4c(c3)OCO4)CC2)c1C (centres unmarked) | 1 to 25
COC(=O)c1c(NC(=O)Cc2cc(OC)c(OC)c(OC)c2)sc2c1CCCCC2 | 25 to 50
CCOc1cc(CN(C(=O)CCc2nc(-c3ccsc3)no2)C2CC2)ccc1OC(F)(F)F | 25 to 50
Cc1nn(Cc2ccccc2Cl)c(C)c1CN(C)S(=O)(=O)c1cccs1 | 1 to 25
O=C(NN(Cc1ccccc1)Cc1ccccc1)c1n[nH]c(=O)c2ccccc12 | 25 to 50
CC1CC1COC(=O)c1sccc1S(=O)(=O)N1CCSCC1 (centres unmarked) | 25 to 50
Clc1ccccc1SCCCSc1nnc(N2CCCC2)s1 | 25 to 50
CN(C)S(=O)(=O)c1ccc(CN2CCCCCC2/C=C/c2ccccc2)o1 (centres unmarked) | 25 to 50
CN(C)S(=O)(=O)c1cccc(CSCCOc2cccc(Cl)c2)c1 | 25 to 50
CCC(C)Oc1cc(-c2nc(C3CCCN3C(=O)OC(C)(C)C)no2)ccn1 (centres unmarked) | 25 to 50
COCCCOC1(CSc2nnc(COc3cc(C)ccc3C)o2)CCCC1 | 25 to 50
FC(F)(F)C1CCCN(Cc2ccccc2CN2CCCC(C(F)(F)F)C2)C1 (centres unmarked) | 25 to 50
CCSC1CCCCC1NCc1nc(-c2ccc(OC(F)F)c(OC)c2)no1 (centres unmarked) | 25 to 50
Cn1ccnc1C(NCCOc1ccc2cc(Br)ccc2c1)C1CC1 (centres unmarked) | 1 to 25
COC(=O)C(C)CN(Cc1ccc(OCc2ccc([N+](=O)[O-])cc2)c(OC)c1)C1CC1 (centres unmarked) | 25 to 50
O=C(c1ccoc1)N1CCC(Nc2cc(Cl)ccc2OCC2CCC2)CC1 | 25 to 50
CCCN(CC1CC1)S(=O)(=O)Oc1ccc(N(C)S(=O)(=O)c2cccs2)cc1 | 25 to 50

Compound | inhibition at 20 µM [%]
COc1ccc(-c2nc(CSc3nnc(CC(C)c4ccccc4)o3)cs2)cc1OC (centres unmarked) | 25 to 50
CC(C)n1cnnc1CNCc1ccc(OCc2ccccc2)cc1OCc1ccccc1 | 1 to 25
CCOC(COCCNC(=O)c1ccsc1NC(=O)c1ccc(C(C)C)cc1)OCC | 1 to 25
OC(CNC(Cc1ccccc1)c1nc(-c2ccccc2)no1)COCc1ccccc1Cl (centres unmarked) | 25 to 50
COCCN(Cc1ccccc1)CC(O)COC(c1ccc(OC)cc1)c1ccc(OC)cc1 (centres unmarked) | 1 to 25
CCn1c(SCCCc2nc3ccccc3o2)nc2ccsc2c1=O | 1 to 25
CC(C)(C)c1noc(COc2ccc(C(=O)c3ccc(F)cc3)cc2)n1 | 25 to 50
CCC(C)N(C(=O)CS(=O)(=O)c1nc(-c2ccccc2)cs1)C(C)CC (centres unmarked) | 25 to 50
CC1CCCN(S(=O)(=O)c2ccc(NCc3ccc(C(=O)N(C)C(C)C)cc3)c([N+](=O)[O-])c2)C1 (centres unmarked) | 25 to 50
CN(Cc1nnc(-c2ccc(F)cc2)o1)CC12CC3CC(CC(C3)C1)C2 | 25 to 50
CCOc1ccccc1CN(CCCn1ccnc1)C(=O)Nc1ccc(OC(F)F)c(Cl)c1 | 25 to 50
CN(C)S(=O)(=O)c1ccc(OCCn2c(=O)c(N3CCCCC3)c(N)n(C)c2=O)cc1 | 1 to 25
O=C(COC1CCCC1)Nc1nnc(-c2ccccn2)[nH]1 | 51 to 75
O=C(COCC(F)(F)F)Nc1nnc(-c2ccccn2)[nH]1 | 25 to 50
Cc1cc(C)c(S(=O)(=O)Nc2ccc(Oc3ccccc3C#N)nc2)c(C)c1 | 25 to 50
CCCOc1ccc2ccccc2c1CN(C)Cc1nnc(-c2ccccc2)o1 | 25 to 50
COc1cccc(-c2nc(C(=O)N3CCC(c4ccccc4)CC3)c[nH]2)c1OC | 25 to 50
COc1ccc(C(=O)NC(C)Cc2ccc(-c3ccccc3)cc2)c(OC)c1OC (centres unmarked) | 25 to 50
COCCCN(C(=O)c1ccc(-n2nc(C)c(Cl)c2C)cc1)S(=O)(=O)c1ccc(OC)cc1 | 25 to 50

Compound | inhibition at 20 µM [%]
CCCn1c(-c2cccc(C)c2)nnc1S(=O)(=O)Cc1csc(-c2cccc(OC)c2)n1 | 51 to 75
CCOC(=O)c1c(-c2ccc(C)cc2)csc1NC(=O)CN(C)CC(=O)NC1CCC(O)CC1 (centres unmarked) | 25 to 50
CCN1CCN(Cc2ccc(NC(=O)c3cc(OC)c(OC)cc3OC)cc2)CC1 | 1 to 25
O=C(C1CCN(c2ccccc2[N+](=O)[O-])CC1)N1CCCC1C1CCCCC1 (centres unmarked) | 1 to 25
Cc1cc(C)c2c(N)c(C(=O)OCc3ccc(C(=O)N4CCCC4)cc3)sc2n1 | 1 to 25
COc1ccc(COCC(CNC(=O)c2cc(C)cc(C)c2)OC(=O)c2cc(C)cc(C)c2)cc1 (centres unmarked) | 25 to 50
COc1ccc(N(C(=O)c2ccc(COc3ccccc3)o2)C(C)C2CC2)cc1 (centres unmarked) | 25 to 50
COC(=O)c1ccc(CCSc2nnc(COc3cccc(C)c3)o2)cc1 | 25 to 50
Cc1ccccc1OCCN(C)c1ccc([N+](=O)[O-])c(OC(F)F)c1 | 25 to 50
COc1ccc2c(c1)C(N(Cc1ccccc1)Cc1nc(CC(C)C)no1)CCO2 (centres unmarked) | 25 to 50
CCC(C)Sc1ccc(NC(=O)c2ccccc2OCCOC)c(C(F)(F)F)c1 (centres unmarked) | 25 to 50
COc1ccc(CN(C)Cc2ccc(OC)c(SC(F)(F)F)c2)cc1F | 25 to 50
OCCCCCSc1n[nH]c(-c2ccccn2)n1 | 51 to 75
c1ccc(Cc2nc(CN(CCn3cccn3)Cc3csc(Cc4ccccc4)n3)cs2)cc1 | 1 to 25
CC(=O)c1cc(C(=O)Nc2cccc(COC3CCCCC3)c2)n(C)c1 | 25 to 50
O=C(Cc1ccccc1[N+](=O)[O-])N1CCCC1C1CCCC1 (centres unmarked) | 1 to 25
CC(C)=CC1C(C(=O)NCc2ccc(OCC(F)(F)F)nc2)C1(C)C (centres unmarked) | 25 to 50
Cc1ccc(S(=O)(=O)N2CCN(C(=O)CNC(=O)c3ncccc3O)CC2)s1 | 25 to 50
COC(=O)c1cc(Cn2nc(C(=O)OC)c(Br)c2C2CC2)c(C)s1 | 25 to 50

The remaining lines, values ahead:

inhibition at 20 µM [%] | Compound
25 to 50 | CC1CN(C(=O)CSc2nnc(Cc3cccc4ccccc34)n2C2CCCCC2)CC(C)O1 (centres unmarked)
25 to 50 | CCn1c(SCc2csc(-c3ccc(OC)c(OC)c3)n2)nc2ccccc21
1 to 25 | COc1ccc(S(=O)(=O)N2CCCCCC2)cc1C(=O)NCCc1ccccc1C
25 to 50 | CC(C)c1ccc(-c2nc(C(=O)NC(C)c3ccccn3)cs2)cc1 (centres unmarked)
25 to 50 | COc1ccc(CCNC(=O)COC(=O)c2c(NC(=O)C(C)(C)C)sc(C)c2C)cc1
1 to 25 | COc1ccccc1CN(Cc1coc(-c2ccc(F)cc2)n1)Cc1cccs1
1 to 25 | COCCCCC(=O)N(c1cc(C)ccc1F)C(C)c1ccc(C)cc1 (centres unmarked)
51 to 75 | FC(F)n1ccnc1CCNCc1csc(COc2ccccc2)n1
25 to 50 | COc1ccc(OCCCn2c(C(F)(F)F)c(Br)cnc2=O)cc1
25 to 50 | Cc1occc1-c1nnc(SCC2CCN(C(=O)OCc3ccccc3)CC2)o1
25 to 50 | Cc1ccc(C)c(OCc2nnc(SCc3c(C#N)c(C)nn3-c3ccccc3)o2)c1
25 to 50 | CCOCCOc1ccc(Br)cc1CNCc1cccc(N2CC=CC2)c1
25 to 50 | CCOc1ccc(-c2nc(CSc3nc4ccccc4n3CCOC)cs2)cc1OC
1 to 25 | COc1cc(CN(C)C(=O)Cc2ccc(Br)cc2)ccc1OCc1ccccc1
25 to 50 | NC(=O)C1CCCN1Cc1cccc(NC(=O)c2ccccc2OCCOc2ccccc2)c1 (centres unmarked)
25 to 50 | Cc1sc2nc(-c3ccccn3)nc(NCC(=O)N3CCC(O)CC3)c2c1-c1ccccc1

inhibition at 20 µM [%] | Compound
51 to 75 | O=C(COC1CCCCC1)Nc1nnc(-c2ccccn2)[nH]1
51 to 75 | CC(COc1ccc(Oc2ccccc2)cc1)Oc1ccc(C(F)(F)F)cn1 (centres unmarked)
25 to 50 | O=C(CN(Cc1csc(COc2ccc(F)cc2)n1)Cc1ccco1)Nc1ccccc1
25 to 50 | COc1ccc(OC)c(CCC(=O)N2CCN(c3ncc(C(F)(F)F)cc3Cl)CC2)c1
25 to 50 | COCCn1c(SC(C)c2nc(-c3cccnc3)no2)nc2cc(Cl)ccc2c1=O (centres unmarked)
1 to 25 | C#CCN(Cc1ccc(C)cc1)c1ccc(C#N)cc1[N+](=O)[O-]
1 to 25 | COc1cccc(N2CCN(C(=O)c3ccccc3SCC(=O)N3CCc4ccccc43)CC2)c1
1 to 25 | O=c1[nH]c(NCC(O)c2ccccc2)nc2ccccc12 (centres unmarked)
51 to 75 | CCOc1ccc(Oc2ccc(C(F)(F)F)cc2NCc2nc(C)no2)cc1
51 to 75 | O=C(CCOCc1ccccc1)Nc1nnc(-c2ccccn2)[nH]1
25 to 50 | CCCOc1nc2ccccc2nc1N1CCN(c2ccccc2F)CC1
25 to 50 | CCCCOCCN(C(=O)c1ccn(-c2ccccc2)n1)c1ccccc1Br
51 to 75 | CCN(CCNC(=O)c1oc(-c2ccccc2)nc1C)c1ccccc1C
25 to 50 | CC(O)(c1ccc(OCc2csc(Cc3ccccc3)n2)cc1)C(F)(F)F (centres unmarked)
1 to 25 | Cc1ccccc1N(CC(=O)NCC1CCCCCC1)S(C)(=O)=O
25 to 50 | CC1CCC(NS(=O)(=O)CC(=O)N2CCCC2Cc2ccccc2Cl)CC1 (centres unmarked)
